The term IC50 denotes the concentration that inhibits the measured activity by half. By EC50 is commonly meant the midpoint of the concentration-response curve. What is called Km is the concentration of substrate that gives half-maximal velocity.

Test [1] has as its target T1, TcTryR (recombinant T. cruzi trypanothione reductase) (Trypanosoma cruzi, UniProt P28593).
T1 construct: made in house
In words: 412 nm DTNB-coupled trypanothione reductase assay (IC50, Km). The format is biochemical. Conditions: 412 nm assay, T(S)2 at S = Km (10.4 μM), weighted mean of three occasions. The procedure:
Assay plates were prepared using a Precision2000 liquid handler (Bio-Tek) with a final DMSO concentration of 1% in all wells. Plates contained a 10-point serial dilution (2-fold or 3-fold dilutions) across columns 2–11 with a top concentration of 100 μM or 200 μM. […] Column 1 contained full signal controls (no inhibitor) and column 12 contained background controls (no enzyme). […] Z′ figures were calculated from the full signal and background controls.

The test system of test [2] is TbTryR (recombinant T. b. brucei trypanothione reductase).
Test [3] concerns Bloodstream form T. b. brucei cells (strain 427, 'single marker'). Conditions: cited from earlier work.
The target of test [4] is T2, TbTryR (recombinant T. b. brucei trypanothione reductase) (Trypanosoma brucei brucei, UniProt Q389T8). In words: biochemical.
In test [5] the test system is African trypanosomiasis. Also on record: method as in Halliburton and Fairlamb, unpublished. The note with it: 50 mg kg^-1, i.p., acute mouse model; ref Halliburton and Fairlamb, unpublished; cited from earlier work.
For test [6], the system named is Bloodstream form T. b. brucei cells (strain 427, 'single marker'). In words: Growth inhibition of bloodstream form T. b. brucei (resazurin). Conditions: Trypanosoma brucei, 72 h, 3 days incubation, weighted mean of three experiments. It counts as cell-based. For orientation: The colour change of resazurin is a common sign of viable cells or microbes.
Protocol: Bloodstream form T. b. brucei cells (strain 427, ‘single marker’) were grown at 37 °C and 5% CO2 in a modified HMI9 [21] (HMI9-T where 0.2 mM 2-mercaptoethanol was replaced with 0.056 mM thioglycerol). Stock cultures were maintained in T75 vented cap culture flasks (Greiner, Kremsmuenster, Austria) and sub-cultured every 48–72 h by dilution into fresh medium. For microtitre plate assays, cells were counted using a Casy cell counter TT (Schärfe systems) and diluted appropriately. Compounds were tested in 96-well test plates (Greiner). The final conditions were 50–0.07 μM test compound (9-point 3-fold serial dilutions), 0.5% DMSO, 10^3 ml^−1 cells in a total volume of 0.2 ml. Plates were incubated for 3 days, resazurin was added to a final concentration of 45 μM and plates incubated for a further 4 h. Fluorescence was measured at 528 nm excitation and 590 nm emission. EC50 values were determined in three separate experiments and the data reported as weighted means.
Test [7] has as its system African trypanosomiasis. The arrangement: method as in PMID 3503414. Conditions: 50 mg kg^-1, i.p.; cited from earlier work.
Test [8] deals with T2, TbTryR (recombinant T. b. brucei trypanothione reductase). Conditions: 150 μM NADH as electron donor, 412 nm assay.
Test [9] deals with L. donovani trypanothione reductase. The arrangement: method as in PMID 7607216. The note with it: read-out: Km T(S)2 (by NADPH oxidation); cited from earlier work.
In test [10] the target is TbTryR (Trypanosoma brucei brucei, UniProt Q389T8). In words: Modified 412 nm DTNB-coupled assay with NADPH regeneration by glucose-6-phosphate dehydrogenase. The format is biochemical. Conditions: NADPH-regenerating system, 6 μM T(S)2. The procedure:
In order to determine Km with respect to NADPH using the 412 nm DTNB assay, NADPH levels were maintained constant using glucose-6-phosphate and glucose-6-phosphate dehydrogenase from Saccharomyces cerevisiae. […] The final assay mixture contained 40 mM HEPES pH 7.4, 1 mM EDTA, ∼10 mU ml^−1 TryR, 6 μM T(S)2, 50 μM DTNB and 0.2–200 μM NADPH (7-point 3-fold serial dilution). Assays were initiated by addition of the NADPH. Km values with respect to NADPH were determined for TbTryR in three independent experiments and a weighted mean calculated.

Where [11] appears, read: ratio of IC50 values at respective S = Km.

Molecules are shown by their SMILES. Where two headings read alike, the source gives them in different places.

T2 sequence (Q389T8 entry or part of it): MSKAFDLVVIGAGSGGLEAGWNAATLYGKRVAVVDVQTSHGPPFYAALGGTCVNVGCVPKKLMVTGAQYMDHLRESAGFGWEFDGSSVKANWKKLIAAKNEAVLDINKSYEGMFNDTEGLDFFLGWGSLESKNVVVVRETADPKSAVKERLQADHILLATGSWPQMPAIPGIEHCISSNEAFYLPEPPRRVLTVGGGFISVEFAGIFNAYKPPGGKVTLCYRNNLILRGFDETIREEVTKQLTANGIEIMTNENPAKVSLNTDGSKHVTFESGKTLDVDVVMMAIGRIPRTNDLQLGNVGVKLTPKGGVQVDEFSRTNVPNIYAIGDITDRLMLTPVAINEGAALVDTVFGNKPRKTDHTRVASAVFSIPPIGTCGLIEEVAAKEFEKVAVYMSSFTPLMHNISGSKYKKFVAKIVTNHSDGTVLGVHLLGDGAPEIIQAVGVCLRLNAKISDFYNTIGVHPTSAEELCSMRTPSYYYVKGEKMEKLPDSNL
T1 sequence (P28593 whole entry): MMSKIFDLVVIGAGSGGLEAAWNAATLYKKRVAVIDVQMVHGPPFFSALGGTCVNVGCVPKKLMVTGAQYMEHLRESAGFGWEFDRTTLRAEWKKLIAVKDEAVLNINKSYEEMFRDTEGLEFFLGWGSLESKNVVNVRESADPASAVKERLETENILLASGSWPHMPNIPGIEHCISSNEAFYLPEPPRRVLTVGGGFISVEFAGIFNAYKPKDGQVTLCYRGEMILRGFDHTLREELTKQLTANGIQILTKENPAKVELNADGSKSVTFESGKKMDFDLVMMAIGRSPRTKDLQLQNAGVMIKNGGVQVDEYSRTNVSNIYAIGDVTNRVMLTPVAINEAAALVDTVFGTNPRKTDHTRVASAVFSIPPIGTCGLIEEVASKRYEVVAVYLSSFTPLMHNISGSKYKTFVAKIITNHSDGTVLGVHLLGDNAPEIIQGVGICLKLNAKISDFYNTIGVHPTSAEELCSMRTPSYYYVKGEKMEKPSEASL
Chain of TbTryR (Q389T8 entry or part of it): as the sequence (Q389T8 entry or part of it) above

On to `CN(C)CCC(=O)c1ccc(Cl)c(Cl)c1` [DM8a], for which the 50% inhibitory concentration (IC50) in test [1] stood at 7.99 ± 0.51 µM; in test [4], 3.17 ± 0.17 µM. Besides, the “Ratio Tc/Tb (IC50 TcTryR / IC50 TbTryR)” value in [2] is 2.5. Moreover, the EC50 in test [3] (ref Martyn et al. [19]) was 1 ± 0.21 µM.

For the compound `CN(C)CCC(=O)c1cccc([N+](=O)[O-])c1` [DM6a], the IC50 was determined as 3.8 ± 0.2 µM in [1] and 3.2 ± 0.16 µM in test [4]. The “Ratio Tc/Tb (IC50 TcTryR / IC50 TbTryR)” value in test [2] (setting [11]) is 1.2. For the same compound, the concentration for a half-maximal effect (EC50) in [3] (ref Martyn et al. [19]) was 0.68 ± 0.1 µM.

For the compound `CN(C)CCCN1c2ccccc2CCc2ccc(Cl)cc21` [Clomipramine], the “extension of survival time” value in test [5] is “failed to extend survival time by even one day”.

For `O=c1c2ccccc2[se]n1-c1ccccc1` [Ebselen], the IC50 in test [1] stood at 0.6 ± 0.01 µM; in test [4], 0.18 ± 0.01 µM. For the same compound, in test [2] (setting [11]), the “Ratio Tc/Tb (IC50 TcTryR / IC50 TbTryR)” value is recorded as 3.3. Further, the EC50 in [3] (ref Richardson et al. [33]) is 2.97 µM.

On to `CN(C)CCCC1(c2ccc(F)cc2)OCc2cc(C#N)ccc21` (centres unmarked) [Citalopram], for which the IC50 in test [1] worked out at 154 ± 5.42 µM; in [4] it was 82.3 ± 6.35 µM. Moreover, a half-maximal response in [6] (EC50) required 6.59 ± 0.54 µM. Also, the “Ratio Tc/Tb (IC50 TcTryR / IC50 TbTryR)” value in [2] (setting [11]) worked out at 1.9.

In the case of `CSc1ccc2c(c1)N(CCC1CCCCN1C)c1ccccc1S2` (centres unmarked) [Thioridazine], in [7], the “activity in the chronic mouse model of African trypanosomiasis” value was “inactive”.

Take `NC(=O)C1=CN([C@@H]2O[C@H](COP(=O)(O)OP(=O)(O)OC[C@H]3O[C@@H](n4cnc5c(N)ncnc54)[C@H](O)[C@@H]3O)[C@@H](O)[C@H]2O)C=CC1` [NADH]: in test [8], the “Activity relative to that obtained with 150 μM NADPH” value came out at 5.7%.

Take `N[C@@H](CCC(=O)N[C@H]1CSSC[C@H](NC(=O)CC[C@H](N)C(=O)O)C(=O)NCC(=O)NCCCNCCCCNC(=O)CNC1=O)C(=O)O` [T(S)2, trypanothione disulphide]: in test [9], the Km is 36 µM.

In the case of `CC(C)(C)c1cc(CN(CCO)CCO)cc(C(C)(C)C)c1O` [DM7a], the IC50 in test [1] amounted to 27.8 ± 2.08 µM; in test [4], 19.2 ± 1.75 µM. Also, the “Ratio Tc/Tb (IC50 TcTryR / IC50 TbTryR)” value in test [2] (setting [11]) was 1.4. Also, in test [3] (ref Martyn et al. [19]), the EC50 was 3.01 ± 0.3 µM.

As to `CN1CCN(CCCN2c3ccccc3Sc3ccc(C(F)(F)F)cc32)CC1` [Trifluoperazine], the IC50 in test [1] was 20.9 ± 0.9 µM. The same compound yielded a 50% effective concentration (EC50) in test [6] of 2.11 ± 0.5 µM. For the same compound, the “activity in the chronic mouse model of African trypanosomiasis” value in [7] is “inactive”.

Consider `CN(C)CCC(=O)c1ccc(S(C)(=O)=O)cc1` [DM5a], for which the IC50 in [1] was 16.9 ± 1.08 µM; in test [4], 6.8 ± 0.42 µM. Besides, the “Ratio Tc/Tb (IC50 TcTryR / IC50 TbTryR)” value in test [2] (setting [11]) is 2.5. In test [3] (ref Martyn et al. [19]), the EC50 is 0.55 ± 0.04 µM.

Take `CCN(CC)CCCC(C)Nc1c2ccc(Cl)cc2nc2ccc(OC)cc12` (centres unmarked) [Quinacrine]: the IC50 was 37.8 ± 1.91 µM in [1] and 22.1 ± 2.05 µM in test [4]. Further, the “Ratio Tc/Tb (IC50 TcTryR / IC50 TbTryR)” value in test [2] turned out to be 1.7.

`NC(=O)C1=CN([C@@H]2O[C@H](COP(=O)(O)OP(=O)(O)OC[C@H]3O[C@@H](n4cnc5c(N)ncnc54)[C@H](OP(=O)(O)O)[C@@H]3O)[C@@H](O)[C@H]2O)C=CC1` [NADPH]: the Km in [10] worked out at 0.77 ± 0.01 µM.

These data come from paper PMC2789240, “Comparative structural, kinetic and inhibitor studies of Trypanosoma brucei trypanothione reductase with T. cruzi^” (Molecular and Biochemical Parasitology, 2010).
